According to ChEMBL document CHEMBL5223156, “Synthesis and biological evaluation of novel N-benzyltriazolyl-hydroxamate derivatives as selective histone deacetylase 6 inhibitors” (Bioorg Med Chem, 2023):
Calls of active or inactive are those of the source. No cut-off for these calls is given here.

Experiments:
Histone deacetylase 1 = Histone deacetylase 1 (Homo sapiens, UniProt Q13547); test: Inhibition of human recombinant HDAC1 using fluorogenic substrate measured after 30 mins
[1] = target: T1, Protein deacetylase HDAC6 (Homo sapiens, UniProt Q9UBN7); test: Inhibition of human recombinant HDAC6 using fluorogenic substrate measured after 30 mins
T1 sequence (Q9UBN7 whole entry): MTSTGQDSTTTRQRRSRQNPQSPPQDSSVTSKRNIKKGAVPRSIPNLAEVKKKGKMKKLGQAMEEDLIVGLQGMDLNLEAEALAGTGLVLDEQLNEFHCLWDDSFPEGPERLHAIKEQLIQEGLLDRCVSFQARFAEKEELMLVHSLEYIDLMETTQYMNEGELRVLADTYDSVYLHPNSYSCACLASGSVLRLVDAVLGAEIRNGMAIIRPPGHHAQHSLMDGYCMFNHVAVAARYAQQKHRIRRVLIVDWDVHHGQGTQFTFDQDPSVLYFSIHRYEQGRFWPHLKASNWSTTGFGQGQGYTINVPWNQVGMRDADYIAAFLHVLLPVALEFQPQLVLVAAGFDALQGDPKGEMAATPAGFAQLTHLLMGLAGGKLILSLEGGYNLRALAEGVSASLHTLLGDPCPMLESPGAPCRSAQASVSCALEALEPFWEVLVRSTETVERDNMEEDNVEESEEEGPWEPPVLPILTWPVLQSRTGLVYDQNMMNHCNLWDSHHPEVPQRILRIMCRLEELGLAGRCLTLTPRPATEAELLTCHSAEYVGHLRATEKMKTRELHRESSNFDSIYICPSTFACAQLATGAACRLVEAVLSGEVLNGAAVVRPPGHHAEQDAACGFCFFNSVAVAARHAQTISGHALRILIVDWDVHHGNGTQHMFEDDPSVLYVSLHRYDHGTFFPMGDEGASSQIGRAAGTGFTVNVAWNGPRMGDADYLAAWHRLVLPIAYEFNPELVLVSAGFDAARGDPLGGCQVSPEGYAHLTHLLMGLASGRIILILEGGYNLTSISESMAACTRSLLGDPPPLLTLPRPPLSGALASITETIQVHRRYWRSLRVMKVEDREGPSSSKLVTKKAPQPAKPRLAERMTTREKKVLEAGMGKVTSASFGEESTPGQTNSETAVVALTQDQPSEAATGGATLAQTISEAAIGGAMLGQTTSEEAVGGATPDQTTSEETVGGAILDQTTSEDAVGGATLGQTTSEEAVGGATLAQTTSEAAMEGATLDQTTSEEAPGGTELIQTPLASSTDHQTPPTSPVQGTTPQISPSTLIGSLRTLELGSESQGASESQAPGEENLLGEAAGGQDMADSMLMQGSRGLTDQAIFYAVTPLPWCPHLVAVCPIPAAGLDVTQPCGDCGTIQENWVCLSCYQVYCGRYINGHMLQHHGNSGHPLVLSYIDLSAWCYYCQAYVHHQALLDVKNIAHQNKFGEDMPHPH

Histone deacetylase 4 = Histone deacetylase 4 (Homo sapiens, UniProt P56524); test: Inhibition of human recombinant HDAC4 using fluorogenic substrate measured after 30 mins
Histone deacetylase 11 = target: T2, Histone deacetylase 11 (Homo sapiens, UniProt Q96DB2); test: Inhibition of human recombinant HDAC11 using fluorogenic substrate measured after 30 mins
T2 sequence (Q96DB2 whole entry): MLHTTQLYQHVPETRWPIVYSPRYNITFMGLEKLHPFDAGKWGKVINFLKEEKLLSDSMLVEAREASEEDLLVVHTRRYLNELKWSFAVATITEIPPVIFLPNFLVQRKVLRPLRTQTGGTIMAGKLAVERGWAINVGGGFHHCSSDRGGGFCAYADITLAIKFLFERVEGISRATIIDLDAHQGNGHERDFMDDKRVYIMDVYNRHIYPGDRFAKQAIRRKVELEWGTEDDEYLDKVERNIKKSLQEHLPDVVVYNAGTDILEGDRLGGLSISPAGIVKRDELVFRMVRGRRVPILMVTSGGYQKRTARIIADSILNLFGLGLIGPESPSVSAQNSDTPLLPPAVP

[2] = Cytotoxicity against human SH-SY5Y cells assessed as cell viability measured after 36 hrs by CCK8 assay
[3] = target: T3, Protein deacetylase HDAC6 (Homo sapiens) (UniProt Q9UBN7); test: Inhibition of HDAC6 in human SH-SY5Y cells assessed as acetylated histone H3 level at 0.3 to 3 uM measured after 24 hrs by immunoblotting analysis; type: cell-based; conditions: dose 0.3-3 µM
T3 sequence (whole entry): T1 sequence (Q9UBN7 whole entry)

Histone deacetylase 2 = Histone deacetylase 2 (Homo sapiens, UniProt Q92769); test: Inhibition of human recombinant HDAC2 using fluorogenic substrate measured after 30 mins
Histone deacetylase 8 = target: T4, Histone deacetylase 8 (Homo sapiens, UniProt Q9BY41); test: Inhibition of human recombinant HDAC8 using fluorogenic substrate measured after 30 mins
T4 sequence (Q9BY41 whole entry): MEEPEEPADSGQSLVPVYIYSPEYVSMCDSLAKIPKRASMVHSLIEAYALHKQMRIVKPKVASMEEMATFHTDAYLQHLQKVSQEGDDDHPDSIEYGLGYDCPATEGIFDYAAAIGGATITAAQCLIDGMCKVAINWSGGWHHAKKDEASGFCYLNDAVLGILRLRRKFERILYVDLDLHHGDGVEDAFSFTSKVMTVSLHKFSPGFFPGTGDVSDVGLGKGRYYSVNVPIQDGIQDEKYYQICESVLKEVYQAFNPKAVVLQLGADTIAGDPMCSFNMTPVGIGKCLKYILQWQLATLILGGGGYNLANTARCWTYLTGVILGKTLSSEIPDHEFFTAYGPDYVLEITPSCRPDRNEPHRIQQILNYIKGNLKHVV

[4] = target: T3, Protein deacetylase HDAC6 (Homo sapiens); test: Inhibition of HDAC6 in human HeLa cells assessed as acetylated histone H3 level at 0.3 to 3 uM measured after 24 hrs by immunoblotting analysis; type: cell-based; conditions: dose 0.3-3 µM

Sequence of Histone deacetylase 1 (Q13547 whole entry): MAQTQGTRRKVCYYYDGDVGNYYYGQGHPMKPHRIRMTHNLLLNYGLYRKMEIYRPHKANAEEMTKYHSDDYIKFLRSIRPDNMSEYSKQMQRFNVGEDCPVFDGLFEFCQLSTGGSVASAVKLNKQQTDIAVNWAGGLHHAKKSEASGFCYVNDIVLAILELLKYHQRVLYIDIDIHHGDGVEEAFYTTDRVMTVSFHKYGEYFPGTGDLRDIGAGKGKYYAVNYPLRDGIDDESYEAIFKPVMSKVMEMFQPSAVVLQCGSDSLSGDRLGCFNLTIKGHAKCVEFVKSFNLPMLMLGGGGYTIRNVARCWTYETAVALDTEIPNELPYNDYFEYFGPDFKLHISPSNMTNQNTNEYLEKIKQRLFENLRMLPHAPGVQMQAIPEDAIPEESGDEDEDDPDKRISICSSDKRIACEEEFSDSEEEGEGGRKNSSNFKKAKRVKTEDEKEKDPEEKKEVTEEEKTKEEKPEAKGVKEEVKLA
Sequence of Histone deacetylase 4 (P56524 whole entry): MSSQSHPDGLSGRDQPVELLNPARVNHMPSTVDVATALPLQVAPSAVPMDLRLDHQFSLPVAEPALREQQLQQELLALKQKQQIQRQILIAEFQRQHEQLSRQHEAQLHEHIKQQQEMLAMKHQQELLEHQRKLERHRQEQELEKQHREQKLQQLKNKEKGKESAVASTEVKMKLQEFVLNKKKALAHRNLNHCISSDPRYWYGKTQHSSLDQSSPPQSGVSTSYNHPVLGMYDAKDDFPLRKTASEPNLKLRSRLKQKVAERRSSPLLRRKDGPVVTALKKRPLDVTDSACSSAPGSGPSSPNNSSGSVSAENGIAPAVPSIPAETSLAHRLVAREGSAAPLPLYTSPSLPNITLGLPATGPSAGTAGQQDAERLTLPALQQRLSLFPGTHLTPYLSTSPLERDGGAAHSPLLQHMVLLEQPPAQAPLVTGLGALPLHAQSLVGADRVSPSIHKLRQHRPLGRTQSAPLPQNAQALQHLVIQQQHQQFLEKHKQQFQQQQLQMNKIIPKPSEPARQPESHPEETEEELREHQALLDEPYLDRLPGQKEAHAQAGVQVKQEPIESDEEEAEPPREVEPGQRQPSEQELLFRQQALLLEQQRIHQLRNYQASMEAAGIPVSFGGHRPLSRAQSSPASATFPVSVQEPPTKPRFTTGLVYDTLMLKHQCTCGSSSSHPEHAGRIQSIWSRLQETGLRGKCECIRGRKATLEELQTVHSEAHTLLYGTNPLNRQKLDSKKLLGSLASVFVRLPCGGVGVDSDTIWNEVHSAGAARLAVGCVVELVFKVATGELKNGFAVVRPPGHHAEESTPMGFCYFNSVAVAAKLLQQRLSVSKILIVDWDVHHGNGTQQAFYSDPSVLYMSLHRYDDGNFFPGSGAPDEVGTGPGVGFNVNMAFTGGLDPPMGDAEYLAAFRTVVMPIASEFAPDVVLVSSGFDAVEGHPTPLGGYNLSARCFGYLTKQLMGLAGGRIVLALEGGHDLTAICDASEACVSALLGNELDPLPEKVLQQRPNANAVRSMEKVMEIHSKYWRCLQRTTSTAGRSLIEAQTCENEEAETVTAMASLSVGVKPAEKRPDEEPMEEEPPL
Sequence of Histone deacetylase 2 (Q92769 whole entry): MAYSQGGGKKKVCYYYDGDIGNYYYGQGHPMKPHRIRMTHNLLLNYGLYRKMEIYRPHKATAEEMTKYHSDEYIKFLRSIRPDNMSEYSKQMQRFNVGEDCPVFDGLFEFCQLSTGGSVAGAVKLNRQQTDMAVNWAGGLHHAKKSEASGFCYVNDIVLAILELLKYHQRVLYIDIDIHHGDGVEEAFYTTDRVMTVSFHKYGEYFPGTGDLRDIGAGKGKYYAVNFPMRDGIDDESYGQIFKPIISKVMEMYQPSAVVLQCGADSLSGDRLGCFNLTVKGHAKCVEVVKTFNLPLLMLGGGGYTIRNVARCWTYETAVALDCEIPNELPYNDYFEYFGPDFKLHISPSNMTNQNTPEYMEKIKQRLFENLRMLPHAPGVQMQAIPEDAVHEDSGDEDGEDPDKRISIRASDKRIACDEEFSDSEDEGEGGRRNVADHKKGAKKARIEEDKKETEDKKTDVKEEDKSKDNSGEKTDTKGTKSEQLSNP

Row | Compound | IC50 (Histone deacetylase 1) [nM] | IC50 [1] [nM] | further results
1 | O=C(NO)c1cccc(Cn2cncn2)c1 | 23200 | 11400 | 
3 | O=C(NO)c1ccc(Cn2cnc(-c3cccnc3)n2)cc1 | 356 | 27.9 | 
4 | O=C(NO)c1ccc(Cn2ncnc2-c2cccs2)cc1 | 427 | 18.3 | 
5 | O=C(NO)c1ccc(Cn2cnc(-c3cc(F)cc(F)c3)n2)cc1 | 256 | 19.6 | 
6 | O=C(NO)c1ccc(Cn2cnc(-c3ccccc3)n2)nc1 | 431 | 20.6 | 
7 | O=C(NO)c1ccc(Cn2cncn2)cc1 | 1440 | 91.8 | 
8 | O=C(NO)c1cccc(Cn2cnc(-c3ccccc3)n2)c1 | 38800 | 1300 | 
9 | O=C(NO)c1cccc(Cn2ncnc2-c2ccccc2)c1 | 18300 | 152 | 
10 | O=C(NO)c1ccc(Cn2cnc(Br)n2)cc1 | 926 | 44.1 | 
11 | O=C(NO)c1ccc(Cn2ncnc2-c2ccccc2)cc1 | 341 | 16.9 | 

Further lines, with some results ahead:

Row | IC50 (Histone deacetylase 1) [nM] | IC50 [1] [nM] | Compound | further results
12 | 168 | 14.7 | Cc1cccc(-c2ncn(Cc3ccc(C(=O)NO)cc3)n2)c1 | 
13 | 605 | 11.8 | O=C(NO)c1ccc(Cn2ncnc2-c2ccccc2F)cc1 | 
14 | 299 | 7.09 | O=C(NO)c1ccc(Cn2cnc(-c3ccccc3F)n2)c(F)c1 | IC50 (Histone deacetylase 4): 4040 nM; IC50 (Histone deacetylase 11): 8090 nM; IC50 at 36 h [2]: 8210 nM; inhibition [3]: Active; IC50 (Histone deacetylase 2): 509 nM; IC50 (Histone deacetylase 8): 813 nM; inhibition [4]: Active
15 | 256 | 10 | O=C(NO)c1ccc(Cn2cnc(-c3ccccc3F)n2)cc1 | 
16 | 268 | 8.73 | O=C(NO)c1ccc(Cn2cnc(-c3cccc(F)c3)n2)cc1 | 
17 | 212 | 13.3 | O=C(NO)c1ccc(Cn2cnc(-c3cccc(OC(F)(F)F)c3)n2)cc1 | 
18 | 122 | 4.57 | O=C(NO)c1ccc(Cn2cnc(-c3cccc(C(F)(F)F)c3)n2)cc1 | 
19 | 206 | 9.11 | O=C(NO)c1ccc(Cn2cnc(-c3ccccc3)n2)cc1 | 
20 | 249 | 10.4 | O=C(NO)c1ccc(Cn2cnc(-c3cccs3)n2)cc1 | 
21 | 111 | 6.4 | O=C(NO)c1ccc(Cn2cnc(-c3cccc(Cl)c3)n2)cc1 | 
22 | 150 | 11.1 | O=C(NO)c1ccc(Cn2cnc(-c3cccc(-c4ccccc4)c3)n2)cc1 | 
23 | 455 | 12.4 | O=C(NO)c1ccc(Cn2cnc(-c3ccccc3)n2)c(F)c1 | 
24 | 269 | 12.6 | O=C(NO)c1ccc(Cn2cnc(-c3ccc(F)cc3)n2)cc1 | 
25 | 167 | 11.5 | COc1cccc(-c2ncn(Cc3ccc(C(=O)NO)cc3)n2)c1 | 
26 | 369 | 14.3 | O=C(NO)c1ccc(Cn2cnc(-c3c(F)cccc3F)n2)cc1 | 
27 | 197 | 12.3 | O=C(NO)c1ccc(Cn2cnc(-c3cccc(O)c3)n2)cc1 | 
